Structures are written as SMILES. Structures can show the parent of a compound that is named as a salt. Where two headings read alike, the source gives them in different places.

The target in this assay is purified human Factor XIa (Homo sapiens (Human), UniProt P03951). The assay can be described thus: biochemical. Type of assay: biochemical. The settings on record: read-out: Factor XIa Ki.
Sequence of purified human Factor XIa (P03951 whole entry, looked up): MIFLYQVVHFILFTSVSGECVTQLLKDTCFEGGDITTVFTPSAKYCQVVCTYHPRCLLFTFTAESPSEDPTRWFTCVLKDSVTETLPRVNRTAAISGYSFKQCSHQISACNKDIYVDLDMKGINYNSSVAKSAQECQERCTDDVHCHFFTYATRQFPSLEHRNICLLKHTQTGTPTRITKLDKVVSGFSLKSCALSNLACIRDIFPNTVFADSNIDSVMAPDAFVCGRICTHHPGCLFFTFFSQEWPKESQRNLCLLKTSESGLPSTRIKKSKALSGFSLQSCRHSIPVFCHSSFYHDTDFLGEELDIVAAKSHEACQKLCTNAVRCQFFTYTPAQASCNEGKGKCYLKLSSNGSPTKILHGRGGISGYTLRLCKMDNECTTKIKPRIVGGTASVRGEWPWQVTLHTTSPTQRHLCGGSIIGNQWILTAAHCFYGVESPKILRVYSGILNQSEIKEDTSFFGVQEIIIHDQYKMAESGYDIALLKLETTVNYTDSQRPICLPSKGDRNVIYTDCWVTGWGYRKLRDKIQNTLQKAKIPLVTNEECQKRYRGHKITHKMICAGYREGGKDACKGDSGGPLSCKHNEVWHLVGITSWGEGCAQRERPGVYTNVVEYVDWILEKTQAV
Sequence of purified human Factor XIa (P03951 whole entry partner, looked up): as the sequence (P03951 whole entry, looked up) above

Turning to `CC(C)[C@@H]1CCC[C@H](N2CCC(c3c(-n4cnnn4)ccc(Cl)c3F)=CC2=O)c2cc(ccn2)-c2ccccc2NC1=O` [Example 100, (10S,14S)-14-{4-[3-chloro-2-fluoro-6-(1H-1,2,3,4-tetrazol-1-yl)phenyl]-6-oxo-1,2,3,6-tetrahydropyridin-1-yl}-10-(propan-2-yl)-8,16-diazatricyclo[13.3.1.0^2,7]nonadeca-1(18),2,4,6,15(19),16-hexaen-9-one, TFA salt], the inhibitory constant (Ki) turned out to be 0.09 nM.

For the compound `COC(=O)Nc1cc2n(n1)-c1ccnc(c1)[C@@H](N1CCC(c3c(F)ccc(Cl)c3F)=CC1=O)CCC[C@@H](C)C(=O)N2` [Example 224, Methyl N-[(9R,13S)-13-[4-(3-chloro-2,6-difluorophenyl)-6-oxo-1,2,3,6-tetrahydropyridin-1-yl]-9-methyl-8-oxo-2,3,7,15-tetraazatricyclo[12.3.1.0^2,6]octadeca-1(18),3,5,14,16-pentaen-4-yl]carbamate], the Ki worked out at 298 nM.

With `C[C@@H]1CCC[C@H](N2CCC(c3c(F)ccc(Cl)c3F)=CC2=O)c2cc(ccn2)-c2ccc(NC(=O)CC(=O)OC(C)(C)C)cc2NC1=O` [Example 87, tert-Butyl 2-{[(10R,14S)-14-[4-(3-chloro-2,6-difluorophenyl)-6-oxo-1,2,3,6-tetrahydropyridin-1-yl]-10-methyl-9-oxo-8,16-diazatricyclo[13.3.1.0^2,7]nonadeca-1(19),2,4,6,15,17-hexaen-5-yl]carbamoyl}acetate, TFA salt], the inhibition constant (Ki) was 17.3 nM.

Turning to `C[C@@H]1CCC[C@H](n2ccc(-c3c(F)ccc(Cl)c3F)cc2=O)c2cc(ccn2)-c2ccc(Nc3ncccn3)cc2NC1=O` [Example 92, (10R,14S)-14-[4-(3-Chloro-2,6-difluorophenyl)-2-oxo-1,2-dihydropyridin-1-yl]-10-methyl-5-[(pyrimidin-2-yl)amino]-8,16-diazatricyclo[13.3.1.0^2,7]nonadeca-1(19),2(7),3,5,15,17-hexaen-9-one, 2 TFA salt], the Ki was 0.56 nM.

Turning to `C[C@@H]1CCC[C@H](N2CCC(c3c(F)ccc(Cl)c3F)=CC2=O)c2cc(ccn2)-n2nc(C3CC3)cc2NC1=O` [Example 223, (9R,13S)-13-[4-(3-chloro-2,6-difluorophenyl)-6-oxo-1,2,3,6-tetrahydropyridin-1-yl]-4-cyclopropyl-9-methyl-2,3,7,15-tetraazatricyclo[12.3.1.0^2,6]octadeca-1(18),3,5,14,16-pentaen-8-one], the inhibition constant Ki was 302 nM.

With `C[C@@H]1CCC[C@H](N2CCC(c3c(F)ccc(Cl)c3F)=CC2=O)c2cc(ccn2)-c2ccc(O)cc2NC1=O` [Example 18, (10R,14S)-14-[4-(3-Chloro-2,6-difluorophenyl)-6-oxo-1,2,3,6-tetrahydropyridin-1-yl]-5-hydroxy-10-methyl-8,16-diazatricyclo[13.3.1.0^2,7]nonadeca-1(19),2,4,6,15,17-hexaen-9-one, TFA salt], the inhibitory constant (Ki) is 1.25 nM.

On to `COC(=O)Nc1ccc2c(c1)NC(=O)[C@H](C)CCC[C@H](N1CCC(c3cncn3Cc3ccccc3)=CC1=O)c1cc-2ccn1` [Example 101, Methyl N-[(10R,14S)-14-[4-(1-benzyl-1H-imidazol-5-yl)-6-oxo-1,2,3,6-tetrahydropyridin-1-yl]-10-methyl-9-oxo-8,16-diazatricyclo[13.3.1.0^2,7]nonadeca-1(19),2,4,6,15,17-hexaen-5-yl]carbamate, bis TFA salt], for which the inhibitory constant (Ki) was more than 434 nM.

For `C[C@@H]1CCC[C@H](N2CCC(c3c(F)ccc(Cl)c3F)=CC2=O)c2cc(ccn2)-c2cc(F)ccc2NC1=O` [Example 145, (10R,14S)-14-[4-(3-chloro-2,6-difluorophenyl)-6-oxo-1,2,3,6-tetrahydropyridin-1-yl]-4-fluoro-10-methyl-8,16-diazatricyclo[13.3.1.0^2,7]nonadeca-1(19),2(7),3,5,15,17-hexaen-9-one], the Ki worked out at 18.6 nM.

Turning to `C[C@@H]1CCC[C@H](N2CCC(c3c(F)ccc(Cl)c3F)=CC2=O)c2cc(ccn2)-c2cc(I)c(N)cc2NC1=O` [Example 61, (10R,14S)-5-Amino-14-[4-(3-chloro-2,6-difluorophenyl)-6-oxo-1,2,3,6-tetrahydropyridin-1-yl]-4-iodo-10-methyl-8,16-diazatricyclo[13.3.1.0^2,7]nonadeca-1(19),2,4,6,15,17-hexaen-9-one, TFA salt], the inhibitory constant (Ki) came to 24.6 nM.

Consider `COC(=O)Nc1ccc2c(c1)NC(=O)[C@H](C)CCC[C@H](N1CCC(c3ccnc(Cl)c3)=CC1=O)c1cc-2ccn1` [Example 156, Methyl N-[(10R,14S)-14-[4-(2-chloropyridin-4-yl)-6-oxo-1,2,3,6-tetrahydropyridin-1-yl]-10-methyl-9-oxo-8,16-diazatricyclo[13.3.1.0^2,7]nonadeca-1(19),2,4,6,15,17-hexaen-5-yl]carbamate, 2 TFA salt], for which the Ki is more than 446 nM.

For `COC(=O)Nc1ccc2c(c1)NC(=O)[C@H](C)CCC[C@H](N1CCC(c3cncn3C)=CC1=O)c1cc-2ccn1` [Example 97, Methyl N-[(10R,14S)-10-methyl-14-[4-(1-methyl-1H-imidazol-5-yl)-6-oxo-1,2,3,6-tetrahydropyridin-1-yl]-9-oxo-8,16-diazatricyclo[13.3.1.0^2,7]nonadeca-1(19),2,4,6,15,17-hexaen-5-yl]carbamate, 2 TFA salt], the Ki was more than 408 nM.

With `CC1CCCC(N2CCC(c3c(F)ccc(Cl)c3F)=CC2=O)c2cc(ccn2)-c2ccc(C#N)cc2NC1=O` (stereo in doubt) [Example 23, (14R)-14-[4-(3-Chloro-2,6-difluorophenyl)-6-oxo-1,2,3,6-tetrahydropyridin-1-yl]-10-methyl-9-oxo-8,16-diazatricyclo[13.3.1.0^2,7]nonadeca-1(18),2,4,6,15(19),16-hexaene-5-carbonitrile, TFA salt], the Ki (TFA salt) was found to be 93.2 nM.

As to `CC1CCC[C@H](N2CCC(c3cccc(Cl)c3F)=CC2=O)c2cc(ccn2)-c2ccc(C(N)=O)cc2NC1=O` (stereo partly drawn) [Example 35, (14S)-14-[4-(3-Chloro-2-fluorophenyl)-6-oxo-1,2,3,6-tetrahydropyridin-1-yl]-10-methyl-9-oxo-8,16-diazatricyclo[13.3.1.0^2,7]nonadeca-1(19),2,4,6,15,17-hexaene-5-carboxamide, TFA salt], the Ki came out at 104 nM.

As for `C[C@@H]1CCC[C@H](N2CCC(c3c(C(F)(F)F)ccc(Cl)c3F)=CC2=O)c2cc(ccn2)-c2ccccc2NC1=O` [Example 67, (10R,14S)-14-{4-[3-Chloro-2-fluoro-6-(trifluoromethyl)phenyl]-6-oxo-1,2,3,6-tetrahydropyridin-1-yl}-10-methyl-8,16-diazatricyclo[13.3.1.0^2,7]nonadeca-1(19),2(7),3,5,15,17-hexaen-9-one, TFA salt], the Ki is 2.98 nM.

For `CC(=O)c1ccc(Cl)c(F)c1C1=CC(=O)N([C@H]2CCCC(C)C(=O)Nc3cc(C(N)=O)ccc3-c3ccnc2c3)CC1` (stereo partly drawn) [Example 34, (14S)-14-[4-(6-Acetyl-3-chloro-2-fluorophenyl)-6-oxo-1,2,3,6-tetrahydropyridin-1-yl]-10-methyl-9-oxo-8,16-diazatricyclo[13.3.1.0^2,7]nonadeca-1(19),2,4,6,15,17-hexaene-5-carboxamide, TFA salt], the Ki amounted to 4.17 nM.

By Ki is commonly meant the equilibrium dissociation constant of an inhibitor or competing ligand from its target.

For the origin of these results see US9409908B2 (priority 2012, dated 2016).
